Measured values reported in US20220125752A1, “LEVODOPA DERIVATIVE AND USE THEREOF” (UNIVERSITY OF TSUKUBA, priority 2019, published 2022).

Legend:
[1] = system: MPTP mouse model of Parkinson's disease; test: Grid walking test, intraperitoneal treatment; type: in vivo, C57BL/6J mice; settings: Day 11, after MPTP administered again; 15 mg/kg (in terms of L-DOPA) intraperitoneal for 11 days
Procedure: Male C57BL/6J mice, 15 weeks old, were used (see Chonpathompikunlert, P. (2018). BMC Complementary and Alternative Medicine, 18(103), 1 -12). […] The administration before treatment was to induce PD, and the administration after treatment was to visualize by a behavioral test. […] A grid walk test was performed as a behavioral test according to the above schedule, and the number of times the limbs of the mouse slipped into the opening was counted to test the balance ability.

[2] = system: MPTP mouse model of Parkinson's disease; test: Narrow beam walk test, intraperitoneal treatment; type: in vivo, C57BL/6J mice; settings: Day 7; 15 mg/kg (in terms of L-DOPA) intraperitoneal; versus MPTP-administered group
Excerpt: Male C57BL/6J mice, 15 weeks old, were used (see Chonpathompikunlert, P. (2018). BMC Complementary and Alternative Medicine, 18(103), 1 -12). […] The administration before treatment was to induce PD, and the administration after treatment was to visualize by a behavioral test. […] In this test, motor ability can be accessed by measuring the time until a mouse passes through a narrow bridge with a width of 1 cm, and the time increases with Parkinson's disease.

[3] = Body weight change and health during treatment; type: in vivo, C57BL/6J mice; settings: 15 mg/kg (in terms of L-DOPA) intraperitoneal for 11 days
Procedure: Male C57BL/6J mice, 15 weeks old, were used (see Chonpathompikunlert, P. (2018). BMC Complementary and Alternative Medicine, 18(103), 1 -12). A method of intraperitoneally administering 1-methyl-4-phenyl -1,2,3,6-tetrahydropyridine (MPTP) was used, but MPTP was administered before and after treatment with intraperitoneal administration of nanoparticles because of high recovery ability of mice themselves. The administration before treatment was to induce PD, and the administration after treatment was to visualize by a behavioral test.
The mice were randomly divided into the following four groups (n=4). • 1) Saline, for 12 days • 2) MPTP 20 mg/kg, 4 times daily, every 2 hours+saline, for 11 days+MPTP 30 mg/kg, for 3 days • 3) MPTP 20 mg/kg, 4 times daily, every 2 hours+L-DOPA 15 mg/kg, for 11 days+MPTP 30 mg/kg, for 3 days • 4) MPTP 20 mg/kg, 4 times daily, every 2 hours+NPs 15 mg/kg (in terms of L-DOPA), for 11 days+MPTP 30 mg/kg, for 3 days

[4] = system: L-DOPA-induced dyskinesia in MPTP mice; test: Abnormal involuntary movement scale test (AIMS test); type: in vivo, C57BL/6J mice; settings: Day 17; 25 mg/kg (in terms of L-DOPA) with Benserazide 12 mg/kg for 17 days
Procedure: Male C57BL/6J mice, 15 weeks old, were used (see Chonpathompikunlert, P. (2018). BMC Complementary and Alternative Medicine, 18(103), 1 -12). […] The administration before treatment was to induce PD, and the administration after treatment was to visualize by a behavioral test. […] An abnormal involuntary movement scale test (AIMS test) was performed as a behavioral test according to the above schedule, and the severity of dyskinesia was scored (0: no AIM, 1: AIM in <50%, 2: AIM in >50%, 3: continuous but stopped by stimulation, 4: continuous). Mice with a strong symptom of dyskinesia have a large score.

[5] = system: L-DOPA-induced dyskinesia in MPTP mice; test: Slider test; type: in vivo, C57BL/6J mice; settings: Day 17; 25 mg/kg (in terms of L-DOPA) with Benserazide 12 mg/kg for 17 days
Excerpt: Male C57BL/6J mice, 15 weeks old, were used (see Chonpathompikunlert, P. (2018). BMC Complementary and Alternative Medicine, 18(103), 1 -12). […] The administration before treatment was to induce PD, and the administration after treatment was to visualize by a behavioral test. […] (6) In addition, in a slider test, motor ability can be assessed by measuring the time until each mouse becomes unable to walk on a slope of 26.5 degrees or slides down, and the time is expected to be shortened with Parkinson's disease.

[6] = system: Parkinson's disease mouse models (MPTP); test: Narrow beam walk test, oral administration; type: in vivo, C57BL/6J mice; settings: oral L-DOPA 15 mg/kg; versus MPTP-administered group
Procedure: (§1) Male C57BL/6J mice, 15 weeks old, were used as models as in Test 2. A three-day training period was provided for the models prior to administration to familiarize them with the experimental apparatus. MPTP was administered intraperitoneally at 30 mg/kg every day for the first 5 days (sub-acute). After the administration of MPTP, oral administration of L-DOPA or Nano^DOPA (administered once daily with a tube) was started, and MPTP was administered intraperitoneally to Groups II and III on Day 9, 4 times daily, every 2 hours (acute). MPTP was also administered intraperitoneally in a similar manner to the remaining Group IV on Day 10. The catalepsy test was performed on the same day as the acute administration of MPTP. In addition, the narrow beam walk test (see Test 2 (4)) was performed 2 days after the catalepsy test. All the mice were euthanized the next day of the behavioral test. Each group described above was as follows, and the mice were randomized into the following four groups (n=8). II. MPTP 30 mg/kg, for 5 days (sub-acute)+MPTP 20 mg/kg, 4 times daily, every 2 hours (acute) MPTP 30 mg/kg, for 5 days (sub-acute)+MPTP 20 mg/kg, 4 times daily, every 2 hours (acute)+L-DOPA 15 mg/kg (oral) IV. MPTP 30 mg/kg, for 5 days (sub-acute)+MPTP 20 mg/kg, 4 times daily, every 2 hours (acute)+Nano^DOPA 1.5 mg/kg (given ad libitum) The results are shown in FIG. 21.

[7] = system: Parkinson's disease mouse models (MPTP); test: Catalepsy test, oral administration; type: in vivo, C57BL/6J mice; settings: L-DOPA 15 mg/kg, Nano^DOPA 1.5 mg/kg (given ad libitum), same day as acute MPTP
Procedure: as §1

[8] = system: heart, lung, liver, spleen, and kidney; parameters: species or system mice; settings: mouse, in vivo
Procedure: After the animals were euthanized, major organs were cut out from mouse models of Parkinson's disease (PD) and L-DOPA-induced dyskinesia (LID) and fixed in a 4% paraformaldehyde solution at 4° C. for 72 hours. These tissues were then processed using an automated tissue processor (TP1020, Leica, Germany). The samples embedded in paraffin were subsequently sliced to a thickness of […] with an automatic microtome and stained with hematoxylin and eosin (H&E) as well as Masson trichrome (MT). Histological evaluation was performed by observation under an optical microscope (DP73, Olympus, Japan) and assessment of the potential toxicity of the PEG-b-P(L-DOPA(OAc)2)-Npa (or Nano^DOPA) during the treatment.

Row | Compound | number of slipping in grid walking test [1] | time to pass through narrow bridge (narrow beam walk) [2] | body weight after MPTP-induced loss [3] | health damage during the administration [3] | severity of dyskinesia (AIMS observation) [4] | slider test, walking on a slope of 26.5 degrees [5] | foot slip errors in narrow beam walk test [6] | catalepsy test [7] | organ damage by H&E staining [8]
1 | N[C@@H](Cc1ccc(O)c(O)c1)C(=O)O [L-DOPA, 3,4-dihydroxy-L-phenylalanine] | no difference was observed in the L-DOPA-administered group compared to the non-treatment group | improvement in therapeutic effect were continuously and significantly observed | rapidly recovered | no noticeable health damage was observed | involuntary movements of the oral cavity and twisting of the body axis characteristic of dyskinesia were observed only in the L-DOPA-administered group | sliding down due to involuntary movements of mice was observed only in the L-DOPA-administered group | significantly suppressed | no significant difference | 
2 | PEG-b-P(L-DOPA(OAc)2) |  |  |  |  |  |  |  |  | does not damage each organ at all
